Results taken from patent publication US10342781B2, “Diazole amides” (CHEMOCENTRYX, INC., priority 2012, dated 2019).

Each compound was assayed against T1, CCR1 (Homo sapiens, UniProt P32246) (assay: Chemotaxis (migration) assay). Conditions: THP-1 or monocyte cells, CCR1 chemokine ligand (MIP-1α, CCL15/Leukotactin), 1-2 hours at 37° C.
T1 construct: host or cells: THP-1 myelomonocytic leukemia cells (or freshly isolated monocytes)
T1 sequence (P32246 1-355): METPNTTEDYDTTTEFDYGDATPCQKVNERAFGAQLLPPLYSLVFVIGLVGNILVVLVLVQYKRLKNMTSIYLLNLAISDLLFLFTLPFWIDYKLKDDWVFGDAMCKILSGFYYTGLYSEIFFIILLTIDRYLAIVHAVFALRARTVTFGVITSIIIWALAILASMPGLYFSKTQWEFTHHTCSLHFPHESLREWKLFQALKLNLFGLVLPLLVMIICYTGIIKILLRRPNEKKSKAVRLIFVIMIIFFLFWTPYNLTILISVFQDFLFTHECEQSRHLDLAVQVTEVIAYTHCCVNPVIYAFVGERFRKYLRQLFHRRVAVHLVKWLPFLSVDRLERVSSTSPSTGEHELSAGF
Type: cell-based
Method: THP-1 cells were obtained from ATCC (TIB-202) and cultured as a suspension in RPMI-1640 medium supplemented with 2 mM L-glutamine, 1.5 g/L sodium bicarbonate, 4.5 g/L glucose, 10 mM HEPES, 1 mM sodium pyruvate, 0.05% 2-mercaptoethanol and 10% FBS. Cells were grown under 5% CO2/95% air, 100% humidity at 37° C. and subcultured twice weekly at 1:5 (cells were cultured at a density range of 2×10^5 to 2×10^6 cells/mL) and harvested at 1×10^6 cells/mL. THP-1 cells express CCR1 and can be used in CCR1 binding and functional assays.
Chemotaxis assays were performed using 5 μm pore polycarbonate, polyvinylpyrrolidone-coated filters in 96-well chemotaxis chambers (Neuroprobe; Gaithersburg, Md.) using chemotaxis buffer (Hank's balanced salt solution (HBSS) and 1% FBS). CCR1 chemokine ligands (i.e., MIP-1α, CCL15/Leukotactin; R&D Systems; Minneapolis, Minn.) are use to evaluate compound mediated inhibition of CCR1 mediated migration. Other chemokines (i.e., SDF-1α; R&D Systems; Minneapolis, Minn.) are used as specificity controls. The lower chamber was loaded with 29 μl of chemokine (i.e., 0.1 nM CCL15/Leukotactin) and varying amounts of compound, the top chamber contained 100,000 THP-1 or monocyte cells in 20 μl. The chambers were incubated 1-2 hours at 37° C., and the number of cells in the lower chamber quantified either by direct cell counts in five high powered fields per well or by the CyQuant assay (Molecular Probes), a fluorescent dye method that measures nucleic acid content and microscopic observation.
One of the primary functions of chemokines is their ability to mediate the migration of chemokine receptor-expressing cells, such as white blood cells. To confirm that a compound of interest inhibited not only CCR1 specific binding and signaling (at least as determined by calcium mobilization assays), but also CCR1 mediated migration, a chemotaxis assay was employed. THP-1 myelomonocytic leukemia cells, which resemble monocytes, as wells as freshly isolated monocytes, were used as targets for chemoattraction by CCR1 chemokine ligands (i.e., MIP-1α, CCL15/leukotactin). Cells were placed in the top compartment of a microwell migration chamber, while MIP-1α (or other potent CCR1 chemokine ligand) and increasing concentrations of a compound of interest was loaded in the lower chamber. […] To ascertain a compound of interest's affinity for CCR1 as well as to confirm its ability to inhibit CCR1 mediated cell migration, inhibitory activity was titered over a 1×10^−10 to 1×10^−4 M range of compound concentrations in this chemotaxis assay. In this assay, the amount of compound was varied; while cell number and chemokine agonist concentrations were held constant. After the chemotaxis chambers were incubated 1-2 hours at 37° C., the responding cells in the lower chamber were quantified by labeling with the CyQuant assay (Molecular Probes), a fluorescent dye method that measures nucleic acid content, and by measuring with a Spectrafluor Plus (Tecan). The computer program Prism from GraphPad, Inc. (San Diego, Ca) was used to calculate IC50 values. IC50 values are those compound concentrations required to inhibit the number of cells responding to a CCR1 agonist by 50%.

IC50	SMILES
100 to 10000 nM	Cc1c(Cl)c(C(F)(F)F)nn1CC(=O)Nc1cnn(-c2ccc(F)cc2)c1 [1.027]
≤ 100 nM	Cc1c(Cl)c(C(F)(F)F)nn1C(C)C(=O)Nc1cnn(-c2ccc(F)cc2)c1C(C)C (stereo not drawn) [1.016]
≤ 100 nM	Cc1nc(C(F)(F)F)cn1C(C)C(=O)Nc1nnn(-c2ccc(Cl)cc2)c1C(C)C (stereo not drawn) [1.001]
≤ 100 nM	Cc1nc(C(F)(F)F)cn1C(C)C(=O)Nc1cnn(-c2ccc(F)cc2)c1C(C)C (stereo not drawn) [1.018]
100 to 10000 nM	CCOc1c(NC(=O)C(C)n2cc(C(F)(F)F)nc2C)cnn1-c1ccc(F)cc1 (stereo not drawn) [1.006]
100 to 10000 nM	Cc1nc(C(F)(F)F)cn1C(C)C(=O)Nc1cnn(-c2ccc(F)cc2)c1Cl (stereo not drawn) [1.004]
100 to 10000 nM	Cc1nc(C(F)(F)F)cn1C(C)C(=O)Nc1cnn(-c2ccc(F)cc2)c1N(C)C (stereo not drawn) [1.003]
100 to 10000 nM	Cc1nc(C(F)(F)F)cn1C(C)C(=O)Nc1cnc(-c2ccc(Cl)cc2)n1C(C)C (stereo not drawn) [1.028]
100 to 10000 nM	CCc1c(NC(=O)Cn2nc(C(F)(F)F)c(Cl)c2C)cnn1-c1ccc(F)cc1 [1.023]
100 to 10000 nM	Cc1nc(C(F)(F)F)cn1C(C)C(=O)Nc1cnn(-c2ccc(F)cc2)c1OC(C)C (stereo not drawn) [1.005]
100 to 10000 nM	Cc1c(Cl)c(C(F)(F)F)nn1CC(=O)Nc1cnn(-c2ccc(F)cc2)c1C [1.025]
100 to 10000 nM	Cc1nc(C(F)(F)F)nn1C(C)C(=O)Nc1cnn(-c2ccc(F)cc2)c1C(C)C (stereo not drawn) [1.008]
100 to 10000 nM	Cc1c(NC(=O)Cn2nc(C(F)(F)F)c(Cl)c2C)ncn1-c1ccc(F)cc1 [1.020]
≤ 100 nM	CCC(C(=O)Nc1cnn(-c2ccc(F)cc2)c1C(C)C)n1nc(C(F)(F)F)c(Cl)c1C (stereo not drawn) [1.017]
≤ 100 nM	Cc1nc(C(F)(F)F)cn1C(C)C(=O)Nc1cnn(-c2ccc(Cl)cc2)c1C(C)C (stereo not drawn) [1.015]
100 to 10000 nM	Cc1c(Cl)c(C(F)(F)F)nn1CC(=O)N(C)c1cnn(-c2ccc(F)cc2)c1 [1.026]
≤ 100 nM	Cc1nc(C(F)(F)F)c2n1C(C(=O)Nc1cnn(-c3ccc(Cl)cc3)c1C(C)C)CCC2 (stereo not drawn) [1.012]
100 to 10000 nM	Cc1c(Cl)c(C(F)(F)F)nn1C(C)(C)C(=O)Nc1cnn(-c2ccc(F)cc2)c1C(C)C [1.007]
100 to 10000 nM	Cc1nc(C(F)(F)F)cn1C(C)C(=O)Nc1cnn(-c2ccc(F)cc2)c1C(C)(C)C (stereo not drawn) [1.013]
100 to 10000 nM	Cc1c(Cl)c(C(F)(F)F)nn1CC(=O)Nc1cnn(-c2ccc(F)cc2)c1-c1ccccc1 [1.021]
≤ 100 nM	Cc1c(Cl)c(C(F)(F)F)nn1CC(=O)Nc1cnn(-c2ccc(F)cc2)c1C(C)C [1.022]
≤ 100 nM	CCC(C(=O)Nc1cnn(-c2ccc(F)cc2)c1C(C)C)n1cc(C(F)(F)F)nc1C (stereo not drawn) [1.019]
≤ 100 nM	Cc1nc(C(F)(F)F)cn1[C@@H](C)C(=O)Nc1cnn(-c2ccc(Cl)cc2)c1C1CCC1 [1.029]
100 to 10000 nM	Cc1nc(C(F)(F)F)cn1C(C)C(=O)Nc1cnn(-c2ccc(Cl)cc2)c1C1CC1 (stereo not drawn) [1.002]
≤ 100 nM	Cc1nc(C(F)(F)F)cn1C(C)C(=O)Nc1cnn(-c2ccc(Cl)cc2)c1C(C)C (stereo not drawn) [1.011]
≤ 100 nM	Cc1nc(C(F)(F)F)cn1C(C)C(=O)Nc1cnn(-c2ccc(F)cc2)c1C(C)C (stereo not drawn) [1.009]
≤ 100 nM	Cc1nc(C(F)(F)F)nn1C(C)C(=O)Nc1cnn(-c2ccc(Cl)cc2)c1C(C)C (stereo not drawn) [1.010]
100 to 10000 nM	Cc1nc(C(F)(F)F)cn1C(C)C(=O)Nc1cnn(-c2ccc(F)cc2)c1C (stereo not drawn) [1.024]
100 to 10000 nM	Cc1c(Cl)c(C(F)(F)F)nn1C(CCCCO)C(=O)Nc1cnn(-c2ccc(F)cc2)c1C(C)C (stereo not drawn) [1.014]

These compounds were tested on inflammatory cells recruited to the inflamed synovial fluid of the knee joints (assay: Rabbit model of destructive joint inflammation (rabbit LPS study)). Conditions: intra-articular LPS (10 ng), dosed orally in 1% methocel 2 hours before and 4 hours after LPS, knees lavaged sixteen hours after LPS.
Type: in vivo, Female New Zealand rabbits
Method: A rabbit LPS study was conducted essentially as described in Podolin, et al. J. Immunol. 169(11):6435-6444 (2002). Female New Zealand rabbits (approximately 2 kilograms) were treated intra-articularly in both knees with LPS (10 ng). The compound of interest, for example 1.016, (formulated in 1% methocel) or vehicle (1% methocel) was dosed orally at a 5 ml/kg dose volume at two times (2 hours before the intra-articular LPS injection and 4 hours after the intra-articular LPS injection). Sixteen hours after the LPS injection, knees were lavaged and cells counts were performed. Beneficial effects of treatment were determined by reduction in the number of inflammatory cells recruited to the inflamed synovial fluid of the knee joints.

SMILES	reduction in the number of inflammatory cells recruited to the inflamed synovial fluid of the knee joints
Cc1c(Cl)c(C(F)(F)F)nn1C(C)C(=O)Nc1cnn(-c2ccc(F)cc2)c1C(C)C (stereo not drawn) [1.016]	significant reduction in recruited inflammatory cells
